ChEMBL document CHEMBL4219252, “Synthesis, antimycobacterial activity and influence on mycobacterial InhA and PknB of 12-membered cyclodepsipeptides” (Bioorg Med Chem, 2018)
Converted amounts (≈) assume the structure as drawn. The source made the active and inactive calls. No cut-off for these calls is given here.

Assays:
Escherichia coli = experiment: Antibacterial activity against Escherichia coli SG458 incubated overnight at 37 degC measured after 24 hrs by agar diffusion method; type: functional, organism-based
Bacillus spizizenii = experiment: Antibacterial activity against Bacillus subtilis ATCC 6633 incubated overnight at 37 degC measured after 24 hrs by agar diffusion method; type: functional, organism-based
[1] = system: Sporobolomyces salmonicolor; experiment: Antifungal activity against Sporobolomyces salmonicolor 549 incubated overnight at 30 degC measured after 24 hrs by agar diffusion method; type: functional, organism-based
[2] = system: Mycolicibacterium smegmatis; experiment: Antimycobacterial activity against Mycobacterium smegmatis SG987 after 48 hrs by resazurin microtiter assay; type: functional
[3] = system: Mycobacterium tuberculosis; experiment: Antimycobacterial activity against Mycobacterium tuberculosis H37Rv after 7 days by BacTiter-Glo microbial cell viability assay; type: functional
[4] = biological target: T1, Serine/threonine-protein kinase PknB (Mycobacterium tuberculosis) (UniProt P9WI81); experiment: Inhibition of Mycobacterium tuberculosis GST-tagged PknB expressed in Escherichia coli assessed as reduction in PknB autophosphorylation at 0.24 to 4.8 uM preincubated for 30 mins followed by [gamma32P]ATP addition measured after 30 mins by scintillation counting method
T1 sequence (whole entry): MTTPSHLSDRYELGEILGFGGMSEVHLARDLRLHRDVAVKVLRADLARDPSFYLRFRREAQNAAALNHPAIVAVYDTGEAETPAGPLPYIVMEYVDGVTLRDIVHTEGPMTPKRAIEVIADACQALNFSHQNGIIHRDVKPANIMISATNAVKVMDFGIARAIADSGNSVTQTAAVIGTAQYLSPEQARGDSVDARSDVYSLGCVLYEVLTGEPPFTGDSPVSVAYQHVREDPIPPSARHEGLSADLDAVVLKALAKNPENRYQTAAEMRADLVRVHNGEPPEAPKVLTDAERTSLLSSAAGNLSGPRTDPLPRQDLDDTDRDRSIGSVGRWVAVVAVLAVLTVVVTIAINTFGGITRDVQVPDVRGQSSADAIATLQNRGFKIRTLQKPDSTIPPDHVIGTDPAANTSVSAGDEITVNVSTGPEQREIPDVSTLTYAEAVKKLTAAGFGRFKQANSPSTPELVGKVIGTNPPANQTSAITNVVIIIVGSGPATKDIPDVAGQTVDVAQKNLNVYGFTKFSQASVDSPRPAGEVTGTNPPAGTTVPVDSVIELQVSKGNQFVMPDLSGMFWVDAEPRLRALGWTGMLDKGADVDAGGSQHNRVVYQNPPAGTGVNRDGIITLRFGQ

[5] = system: Mycolicibacterium smegmatis; experiment: Antimycobacterial activity against Mycobacterium smegmatis SG987 incubated overnight at 37 degC measured after 24 hrs by agar diffusion method; type: functional
Mycolicibacterium vaccae = experiment: Antimycobacterial activity against Mycobacterium vaccae IMET 10670 incubated overnight at 37 degC measured after 24 hrs by agar diffusion method; type: functional
[6] = biological target: T1, Serine/threonine-protein kinase PknB (Mycobacterium tuberculosis); experiment: Inhibition of Mycobacterium tuberculosis GST-tagged PknB expressed in Escherichia coli assessed as reduction in PknB autophosphorylation at 4.8 uM preincubated for 30 mins followed by [gamma32P]ATP addition measured after 30 mins by scintillation counting method relative to control
Mycolicibacterium aurum = experiment: Antimycobacterial activity against Mycobacterium aurum SB66 incubated overnight at 37 degC measured after 24 hrs by agar diffusion method; type: functional
[7] = system: Mycobacterium tuberculosis; experiment: Antimycobacterial activity against Mycobacterium tuberculosis H37Rv ATCC 27294 by microplate alamar blue assay; type: functional
[8] = Antiproliferative activity against HUVEC after 72 hrs by CellTiter-Blue1 assay; type: cell-based; settings: human
[9] = Cytotoxicity against human HeLa cells assessed as reduction in cell viability after 72 hrs by CellTiter-Blue1 assay; type: cell-based
[10] = Antiproliferative activity against human K562 cells after 72 hrs by CellTiter-Blue1 assay; type: cell-based
[11] = biological target: T1, Serine/threonine-protein kinase PknB (Mycobacterium tuberculosis); experiment: Induction of Mycobacterium tuberculosis GST-tagged PknB autophosphorylation expressed in Escherichia coli at 4.8 uM preincubated for 30 mins followed by [gamma32P]ATP addition measured after 30 mins by scintillation counting method relative to control
[12] = Mycobacterium tuberculosis, H37Rv, 168 h, read-out: MIC
[13] = Mycolicibacterium smegmatis, SG987, 48 h, read-out: MIC

SMILES | Activity (Escherichia coli) | Activity (Bacillus spizizenii) | Activity [1] | also measured
C[C@@H](OCc1ccccc1)C(=O)O[C@H](C)[C@H](NC(=O)c1ccccc1O)C(=O)NCCCC(=O)OCc1ccccc1 | inactive | inactive | inactive | –
C[C@@H](OC(=O)CO)[C@H](NC(=O)OC(C)(C)C)C(=O)NC(CCC(=O)O)Cc1ccccc1 (stereo partly drawn) | – | – | – | Activity [2]: inactive; Activity [3]: inactive
CC/C(C)=C1\OC(=O)[C@H](C)[C@@H](O)[C@H](Cc2cccnc2)NC(=O)[C@@H](NC(=O)c2ncccc2O)[C@@H](C)OC1=O | – | – | – | inhibition [4]: inactive
C[C@@H](O)C(=O)O[C@H](C)[C@H](NC(=O)OC(C)(C)C)C(=O)NC(CCC(=O)O)Cc1ccccc1 (stereo partly drawn) | – | – | – | Activity [2]: inactive; Activity [3]: inactive
COC(=O)CCC(Cc1ccccc1)NC(=O)[C@@H](NC(=O)OC(C)(C)C)[C@@H](C)OC(=O)[C@@H](C)O (stereo partly drawn) | inactive | inactive | inactive | Activity [5]: inactive; inhibition [4]: inactive; Activity (Mycolicibacterium vaccae): inactive
C[C@@H](OCc1ccccc1)C(=O)O[C@H](C)[C@H](NC(=O)c1ncccc1O)C(=O)NCCCC(=O)OCc1ccccc1 | inactive | inactive | inactive | –
C[C@H]1OC(=O)COC(=O)CCC(Cc2ccccc2)NC(=O)[C@H]1NC(=O)OC(C)(C)C (stereo in doubt; form 1) [listing 1 of 2 here] | inactive | inactive | inactive | inhibition [6]: 60%
C[C@@H](OCc1ccccc1)C(=O)O[C@H](C)[C@H](NC(=O)c1ccccn1)C(=O)NCCCC(=O)OCc1ccccc1 | inactive | inactive | inactive | –
C[C@H]1OC(=O)CCC(Cc2ccccc2)NC(=O)[C@@H](NC(=O)OC(C)(C)C)[C@@H](C)OC1=O (stereo in doubt; form 2) [listing 1 of 2 here] | – | – | – | diameter of the inhibition zone (DIZ) [5]: 0 mm; MIC [3, 12]: 125 µM (≈ 56.1 µg/mL); diameter of the inhibition zone (DIZ) (Mycolicibacterium vaccae): 0 mm; diameter of the inhibition zone (DIZ) (Mycolicibacterium aurum): 0 mm
C[C@H]1OC(=O)CCCNC(=O)[C@@H](NC(=O)c2ccccn2)[C@@H](C)OC1=O | inactive | inactive | inactive | –
C[C@H]1OC(=O)CCCNC(=O)[C@@H](NC(=O)c2ncccc2O)[C@@H](C)OC1=O | inactive | inactive | inactive | –
C[C@@H](OCc1ccccc1)C(=O)O[C@H](C)[C@H](NC(=O)c1ncccc1F)C(=O)NCCCC(=O)OCc1ccccc1 | inactive | inactive | inactive | –
COC(=O)/C=C/C(=O)c1ccc(OC)cc1 | – | – | – | MIC [7]: 1.14 µM (≈ 0.251 µg/mL)
C[C@H]1OC(=O)COC(=O)CCC(Cc2ccccc2)NC(=O)[C@H]1NC(=O)OC(C)(C)C (stereo in doubt; form 2) [listing 1 of 2 here] | – | – | – | diameter of the inhibition zone (DIZ) [5]: 21 mm; MIC [2]: 7.2 µM (≈ 3.13 µg/mL); GI50 at 72 h [8]: 5 to 50 µg/mL (≈ 11.5 to 115 µM); CC50 at 72 h [9]: 5 to 50 µg/mL (≈ 11.5 to 115 µM); GI50 at 72 h [10]: 5 to 50 µg/mL (≈ 11.5 to 115 µM); MIC [3, 12]: 4 µM (≈ 1.74 µg/mL); diameter of the inhibition zone (DIZ) (Mycolicibacterium vaccae): 24 - 31 mm; diameter of the inhibition zone (DIZ) (Mycolicibacterium aurum): 0 mm
C[C@@H](OC(=O)COCc1ccccc1)[C@H](NC(=O)c1ncccc1O)C(=O)NCCCC(=O)OCc1ccccc1 | inactive | inactive | inactive | –
C[C@H]1OC(=O)COC(=O)CCCNC(=O)[C@H]1NC(=O)c1ncccc1O | inactive | inactive | inactive | –
C[C@@H](OC(=O)COCc1ccccc1)[C@H](NC(=O)c1ccccc1O)C(=O)NCCCC(=O)OCc1ccccc1 | inactive | inactive | inactive | –
C[C@H]1OC(=O)CCC(Cc2ccccc2)NC(=O)[C@@H](NC(=O)c2ncccc2O)[C@@H](C)OC1=O (stereo partly drawn) | inactive | inactive | inactive | diameter of the inhibition zone (DIZ) [5]: 17 mm; MIC [2, 13]: 13.7 µM (≈ 6.43 µg/mL); GI50 at 72 h [8]: > 5 µg/mL; CC50 at 72 h [9]: > 5 µg/mL; GI50 at 72 h [10]: > 5 µg/mL; MIC [3, 12]: 8 µM (≈ 3.76 µg/mL); inhibition [6]: 35%; diameter of the inhibition zone (DIZ) (Mycolicibacterium vaccae): 21 - 29 mm; diameter of the inhibition zone (DIZ) (Mycolicibacterium aurum): 0 mm
C[C@@H](OC(=O)COCc1ccccc1)[C@H](NC(=O)c1ccccn1)C(=O)NCCCC(=O)OCc1ccccc1 | inactive | inactive | inactive | –
C[C@H]1OC(=O)c2ccccc2OC(=O)CCNC(=O)[C@H]1NC(=O)OC(C)(C)C | inactive | inactive | inactive | –
CC[C@H](C)[C@@H]1NC(=O)C[C@H](CC(C)C)CNC(=O)[C@@H](NC(=O)c2ccccn2)[C@@H](C)OC1=O | inactive | inactive | inactive | Activity [2]: inactive; Activity [3]: inactive
C[C@H]1OC(=O)CCC(Cc2ccccc2)NC(=O)[C@@H](NC(=O)OC(C)(C)C)[C@@H](C)OC1=O (stereo in doubt; form 1) | inactive | inactive | inactive | –
C[C@H]1OC(=O)COC(=O)CCC(Cc2ccccc2)NC(=O)[C@H]1NC(=O)OC(C)(C)C (stereo in doubt; form 2) [listing 2 of 2 here] | inactive | inactive | inactive | inhibition [6]: 60%
C[C@H]1OC(=O)CCC(Cc2ccccc2)NC(=O)[C@@H](NC(=O)OC(C)(C)C)[C@@H](C)OC1=O (stereo in doubt; form 2) [listing 2 of 2 here] | inactive | inactive | inactive | inhibition [4]: inactive; Activity [11]: 60%; fold change (FC) [11]: 2
C[C@H]1OC(=O)c2ccccc2OC(=O)CCNC(=O)[C@H]1NC(=O)c1ncccc1O | inactive | inactive | inactive | Activity [2]: inactive; Activity [3]: inactive
C[C@H]1OC(=O)COC(=O)CCC(Cc2ccccc2)NC(=O)[C@H]1NC(=O)OC(C)(C)C (stereo in doubt; form 1) [listing 2 of 2 here] | – | – | – | diameter of the inhibition zone (DIZ) [5]: 17 mm; MIC [2]: 28.8 µM (≈ 12.5 µg/mL); MIC [3]: 8 µM (≈ 3.48 µg/mL); diameter of the inhibition zone (DIZ) (Mycolicibacterium vaccae): 20 - 26 mm
C[C@H]1OC(=O)COC(=O)CCCNC(=O)[C@H]1NC(=O)c1ccccn1 | inactive | inactive | inactive | –
C[C@@H](OC(=O)COCc1ccccc1)[C@H](NC(=O)c1ncccc1F)C(=O)NCCCC(=O)OCc1ccccc1 | inactive | inactive | inactive | –
NNC(=O)c1ccncc1 [ISONIAZID] | – | – | – | MIC [2, 13]: 29.2 µM (≈ 4 µg/mL); MIC [3, 12]: 0.31 µM (≈ 0.0425 µg/mL)
